These results are taken from PubChem BioAssay (NCI).

Among the test systems are TK-10 renal; EKVX NSCLC; OVCAR-3 ovarian; IGROV1 ovarian; NCI-H460 lung; UO-31 renal; SF-539 CNS; OVCAR-5 ovarian; A498 renal.
Assay in all cases: DTP human tumour cell line panel, 48 h

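Tested at 5 concentrations; 48 h exposure; 96-well plates; endpoints linearly interpolated, else capped at highest concentration. GI50 is the concentration that inhibits growth by half. TGI is the concentration that stops growth completely.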

A word on the GI50: it is the concentration that inhibits growth by half. As a reminder, the TGI is the concentration at which net growth stops. The low end stands for more potent growth arrest, the high end for less potent growth arrest. `CC(=O)OCC1OC([Se-])C(OC(C)=O)C(OC(C)=O)C1OC(C)=O.N#CCC[PH+](CCC#N)CCC#N.[Au+]` (stereo unspecified): the GI50 is 14.2 µM in the assay with TK-10 renal; 3.12 µM in the assay on EKVX NSCLC; 7.3 µM with OVCAR-3 ovarian; 24.5 µM in the assay with IGROV1 ovarian; 4.95 µM in the assay with NCI-H460 lung; 8.41 µM in the assay with UO-31 renal. In addition, the GI50 in the assay on SF-539 CNS was 15.3 µM; with OVCAR-5 ovarian, 9.81 µM. For the same molecule, the TGI in the assay with TK-10 renal is 46.9 µM; in the assay with EKVX NSCLC, 8.21 µM; in the assay on OVCAR-3 ovarian, 49.7 µM; in the assay on IGROV1 ovarian it was greater than 81.6 µM; in the assay with NCI-H460 lung, 29.6 µM; in the assay on UO-31 renal, 42.1 µM. In addition, the TGI in the assay with SF-539 CNS was 41.2 µM; in the assay on OVCAR-5 ovarian, 41.9 µM.
As to `NC1=NC2=C(CCCC2)C(c2cccs2)S1` (stereo unspecified), the TGI in the assay with TK-10 renal, with EKVX NSCLC, in the assay on OVCAR-3 ovarian, in the assay on A498 renal, in the assay with IGROV1 ovarian and with NCI-H460 lung was greater than 100 µM each time. For the same molecule, the TGI in the assay on UO-31 renal is 74.3 µM; with SF-539 CNS, greater than 100 µM; with OVCAR-5 ovarian, greater than 100 µM.
With `N#Cc1c(-c2ccccc2)cc(-c2cccs2)c(C#N)c1N`, the TGI in the assay with TK-10 renal, in the assay on EKVX NSCLC, with OVCAR-3 ovarian, in the assay with A498 renal, with NCI-H460 lung and with SF-539 CNS was greater than 100 µM each time.
In the case of `Cc1cc2c(cc1C)[n+](=O)c(C(=O)CC(=O)C(=O)Nc1ccccc1C(C)C)c(C)n2[O-]`, the TGI in the assay with TK-10 renal, in the assay with EKVX NSCLC, with OVCAR-3 ovarian, with A498 renal, in the assay on IGROV1 ovarian and in the assay on NCI-H460 lung was greater than 100 µM each time. The TGI with UO-31 renal, in the assay on SF-539 CNS and with OVCAR-5 ovarian was greater than 100 µM each time.
As to `COC1=CC(=O)OC(/C=C(C)/C=C/C2=C(C)CCCC2(C)C)C1` (stereo unspecified), the TGI in the assay on TK-10 renal, in the assay on EKVX NSCLC, in the assay on OVCAR-3 ovarian, with A498 renal, with IGROV1 ovarian and in the assay with NCI-H460 lung was greater than 100 µM each time. The concentration for total growth inhibition (TGI) in the assay on UO-31 renal, in the assay on SF-539 CNS and in the assay with OVCAR-5 ovarian was greater than 100 µM throughout.
In the case of `Fc1ccc(C2SCc3nc4ccccc4n32)cc1F` (stereo unspecified), the TGI is 82.3 µM in the assay with TK-10 renal; greater than 100 µM in the assay on EKVX NSCLC; greater than 100 µM in the assay with OVCAR-3 ovarian; greater than 100 µM with A498 renal; greater than 100 µM with IGROV1 ovarian; greater than 100 µM in the assay on NCI-H460 lung. The TGI was 41 µM with UO-31 renal and greater than 100 µM in the assay with SF-539 CNS.
With `CC(=O)CC(=O)NC=O`, the TGI with TK-10 renal, in the assay with EKVX NSCLC, in the assay with OVCAR-3 ovarian, with A498 renal, in the assay with IGROV1 ovarian and in the assay on NCI-H460 lung was greater than 100 µM each time. In addition, the TGI with UO-31 renal, in the assay on SF-539 CNS and in the assay on OVCAR-5 ovarian was greater than 100 µM each time.
`O=C([O-])CCc1ccccc1.O=C([O-])CCc1ccccc1.O=C([O-])CCc1ccccc1.O=C([O-])CCc1ccccc1.[Mo+2].[Mo+2]`: the GI50 in the assay on TK-10 renal, in the assay on EKVX NSCLC, in the assay with OVCAR-3 ovarian, in the assay on IGROV1 ovarian, with NCI-H460 lung and in the assay on UO-31 renal was greater than 100 µM each time. The GI50 in the assay with SF-539 CNS and in the assay on OVCAR-5 ovarian was greater than 100 µM each time. For the same molecule, the TGI in the assay with TK-10 renal, with EKVX NSCLC, in the assay with OVCAR-3 ovarian, in the assay on IGROV1 ovarian, in the assay on NCI-H460 lung and in the assay with UO-31 renal was greater than 100 µM in each case. The TGI with SF-539 CNS and with OVCAR-5 ovarian was greater than 100 µM each time.
Turning to `C=C1c2[nH]c3ccccc3c2CC(C(=O)O)N1C(O)c1ccc(S(=O)(=O)O)cc1` (stereo unspecified), the TGI in the assay with TK-10 renal, in the assay with OVCAR-3 ovarian, in the assay with A498 renal, with NCI-H460 lung, in the assay on UO-31 renal and in the assay on SF-539 CNS was greater than 100 µM in each case. Also, the TGI in the assay on OVCAR-5 ovarian was greater than 100 µM.
For `O=C(N/C=C/C=C/Sc1ccccc1)OCc1ccccc1`, the TGI in the assay on TK-10 renal was determined as 64.7 µM; in the assay on EKVX NSCLC it was 53.6 µM; in the assay on OVCAR-3 ovarian, 32 µM; with IGROV1 ovarian, 42.1 µM; in the assay on NCI-H460 lung, 57 µM; in the assay on UO-31 renal, 42 µM. The TGI in the assay with SF-539 CNS worked out at 30.4 µM; in the assay with OVCAR-5 ovarian it was 33.1 µM.
For `CC(=O)N(CCN1C(=O)c2ccccc2C1=O)CCN1C(=O)c2ccccc2C1=O`, the TGI in the assay with TK-10 renal, in the assay with EKVX NSCLC, in the assay with OVCAR-3 ovarian, with A498 renal, in the assay with NCI-H460 lung and with UO-31 renal was greater than 100 µM throughout.
For the molecule `O=C1C(=C([O-])c2ccccc2)C(=O)c2ccccc21.O=C1C(=C([O-])c2ccccc2)C(=O)c2ccccc21.[Co+2]`, the GI50 in the assay with TK-10 renal is greater than 100 µM; in the assay with EKVX NSCLC, greater than 100 µM; with OVCAR-3 ovarian, 75.1 µM; with A498 renal it was greater than 100 µM; in the assay with IGROV1 ovarian it was greater than 100 µM; in the assay on UO-31 renal, greater than 100 µM. Also, the GI50 with SF-539 CNS and with OVCAR-5 ovarian was greater than 100 µM each time. Further, the TGI in the assay with TK-10 renal, with EKVX NSCLC, in the assay on OVCAR-3 ovarian, with A498 renal, in the assay with IGROV1 ovarian and with UO-31 renal was greater than 100 µM in each case. Moreover, the TGI in the assay with SF-539 CNS and with OVCAR-5 ovarian was greater than 100 µM throughout.
As to `NC(CO)c1ccc(OCc2ccccc2)cc1` (stereo unspecified), the TGI in the assay on TK-10 renal, in the assay with EKVX NSCLC, with OVCAR-3 ovarian, with A498 renal, in the assay on IGROV1 ovarian and with NCI-H460 lung was greater than 100 µM each time. Also, the TGI in the assay with UO-31 renal, in the assay with SF-539 CNS and in the assay on OVCAR-5 ovarian was greater than 100 µM in each case.
As to `Cn1c2cc([N+](=O)[O-])ccc2c(=O)c2c(O)cc3c(c21)C=CC(C)(C)O3`, the TGI in the assay with TK-10 renal was 89.1 µM; with EKVX NSCLC it was greater than 100 µM; in the assay with A498 renal, greater than 100 µM; with IGROV1 ovarian, greater than 100 µM; in the assay on NCI-H460 lung, greater than 100 µM; with UO-31 renal, 67.6 µM. Further, the TGI in the assay with SF-539 CNS worked out at 32.4 µM; in the assay on OVCAR-5 ovarian, 80.4 µM.
